Values of other authors, collected in patent US20240226128A1, “NOVEL COMPOUNDS WITH DUAL INHIBITION ACTIVITY AGAINST SARS-COV-2 CRITICAL ENZYMES RDRP, MPRO AND HUMAN TMPRSS2” (priority 2022, published 2024).

System: COVID-19
Settings: high-risk patient including different variants; cited from earlier work

## CC(C)C(=O)OC[C@H]1O[C@@H](n2ccc(NO)nc2=O)[C@H](O)[C@@H]1O [Molnupiravir]
  reduced risk of COVID-19 death: 50%
